Test results taken from patent US6967196B1, “Sulfonamide compounds and uses thereof” (Bristol-Myers Squibb Company, priority 1999, dated 2005).
Counter-ions that a name gives are not always drawn. Like-named read-outs stand apart in the source and are kept apart here.

Tested on: amyloid β production in transfected H4 (human neuroglioma) cells stably expressing APP constructs
Assay: In vitro cell-based assay of inhibitors of amyloid β production (ELISA)
Conditions: transfected H4 cells stably expressing APP, approx. 16 h incubation, amyloid β in medium by ELISA, read-out: ACTIVITY (IC50, inhibition of amyloid β production)
Outline: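 Test agents are screened at 10-100 μM for about 16 hours on cells stably expressing wild-type or variant APP. Secreted Aβ is measured by ELISA and compared with control-treated cells.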

Structure (SMILES)	IC50	IC50 (Homo sapiens, 16 h)
COC(=O)[C@H](CC(C)C)NC(=O)CCCC[C@@H](C)N(c1cc(Cl)ccc1F)S(=O)(=O)c1ccc(Cl)cc1 [Example 543, (R)-4-Chloro-N-(5-chloro-2-fluorophenyl)-N-[6-[N-(S)-[1-(methoxycarbonyl)-3-methylbutyl]amino]-1-methyl-6-oxohexyl]benzenesulfonamide]	0.1 to 0.5 µM	–
CC(C)[C@@H](NC(=O)CCC[C@@H](C)N(c1cc(Cl)ccc1F)S(=O)(=O)c1ccc(Cl)cc1)C(=O)O [Example 544, (R)-4-Chloro-N-(5-chloro-2-fluorophenyl)-N-[5-[N-(R)-[1-(carboxy)-2-methylpropyl]amino]-1-methyl-5-oxopentyl]benzenesulfonamide]	0.1 to 0.5 µM	–
CC(C)C[C@H](NC(=O)CCC[C@@H](C)N(c1cc(Cl)ccc1F)S(=O)(=O)c1ccc(Cl)cc1)C(=O)O [Example 546, (R)-4-Chloro-N-(5-chloro-2-fluorophenyl)-N-[5-[N-(S)-[1-(carboxy)-3-methylbutyl]amino]-1-methyl-5-oxopentyl]benzenesulfonamide]	0.1 to 0.5 µM	–
CC(C)[C@H](NC(=O)CCCC[C@@H](C)N(c1cc(Cl)ccc1F)S(=O)(=O)c1ccc(Cl)cc1)C(=O)O [Example 547, (R)-4-Chloro-N-(5-chloro-2-fluorophenyl)-N-[6-[N-(S)-[1-(carboxy)-2-methylpropyl]amino]-1-methyl-6-oxohexyl]benzenesulfonamide]	0.1 to 0.5 µM	–
CC(C)C[C@H](NC(=O)CCCC[C@@H](C)N(c1cc(Cl)ccc1F)S(=O)(=O)c1ccc(Cl)cc1)C(=O)O [Example 548, (R)-4-Chloro-N-(5-chloro-2-fluorophenyl)-N-[6-[N-(S)-[1-(carboxy)-3-methylbutyl]amino]-1-methyl-6-oxohexyl]benzenesulfonamide]	0.1 to 0.5 µM	–
C[C@H](C(=O)NCc1ccccn1)N(c1cc(Cl)ccc1F)S(=O)(=O)c1ccc(Cl)cc1 [Example 610]	0.1 to 0.5 µM	–
C[C@H](C(=O)N[C@@H]1CC2CCC1C2)N(c1cc(Cl)ccc1F)S(=O)(=O)c1ccc(Cl)cc1 (stereo partly drawn) [Example 627]	0.1 to 0.5 µM	–
CC(c1ccccc1OCCCN(C)C(=O)c1ccccc1I)N(c1cc(F)ccc1F)S(=O)(=O)c1ccc(Cl)cc1 (stereo not drawn) [Example 637]	0.1 to 0.5 µM	–
O=S(=O)(c1ccc(Cl)cc1)N(Cc1ccccc1OCCCN1CCC(O)CC1)c1ccccc1 [Example 645, 4-chloro-N-{2-[3-(4-hydroxy-1-piperidinyl)propoxy]benzyl}-N-phenylbenzenesulfonamide hydrochloride]	–	0.1 to 0.5 µM
CCOc1ccc(C(=O)N2CCCCC2CCOc2ccccc2CN(c2cc(F)ccc2F)S(=O)(=O)c2ccc(Cl)cc2)cc1 (stereo not drawn) [Example 648, 4-chloro-N-(2,5-difluorophenyl)-N-{2-[2-[1-(4-ethoxybenzoyl)-2-piperidinyl]ethoxy}benzyl)benzenesulfonamide]	–	0.1 to 0.5 µM
O=C(c1cccc(F)c1)N1CCCCC1CCOc1ccccc1CN(c1cc(F)ccc1F)S(=O)(=O)c1ccc(Cl)cc1 (stereo not drawn) [Example 661, 4-chloro-N-(2,5-difluorophenyl)-N-(2-{2-[1-(3-fluorobenzoyl)-2-piperidinyl]ethoxy}benzyl)benzenesulfonamide]	–	0.1 to 0.5 µM
O=S(=O)(c1ccc(Cl)cc1)N(Cc1ccccc1OCCCN1CCCCC1)c1cccc(Cl)c1 [Example 663, 4-chloro-N-(3-chlorophenyl)-N-{2-[3-(1-piperidinyl)propoxy]benzyl}benzenesulfonamide hydrochloride]	–	0.1 to 0.5 µM
CN(CCCOc1ccccc1CN(c1cc(F)ccc1F)S(=O)(=O)c1ccc(Cl)cc1)C(=O)CCCCC1SCC2NC(=O)NC21 (stereo not drawn) [Example 666, N-{3-[2-({[(4-chlorophenyl)sulfonyl]-2,5-difluoroanilino}methyl)phenoxy]propyl}-N-methyl-5-(2-oxohexahydro-1H-thieno[3,4-d]imidazol-4-yl)pentamide]	0.1 to 0.5 µM	–
C[C@H](c1ccccc1COC(=O)NCc1ccco1)N(c1cc(F)ccc1F)S(=O)(=O)c1ccc(Cl)cc1 [Example 667, 2-((1R)-1-{[(4-chlorophenyl)sulfonyl]-2,5-difluoroanilino}ethyl)benzyl 2-furylmethylcarbamate]	0.1 to 0.5 µM	–
CC(c1ccccc1OCCCN(C)C(=O)c1cc([N+](=O)[O-])cc([N+](=O)[O-])c1)N(c1cc(F)ccc1F)S(=O)(=O)c1ccc(Cl)cc1 (stereo not drawn) [Example 668, N-{3-[2-(1-{[(4-chlorophenyl)sulfonyl]-2,5-difluoroanilino}ethyl)phenoxy]propyl}-N-methyl-3,5-dinitrobenzamide]	0.1 to 0.5 µM	–
O=S(=O)(c1ccc(Cl)cc1)N(Cc1ccccc1OCCC1CCCCN1Cc1ccccc1I)c1cc(F)ccc1F (stereo not drawn) [Example 672, 4-chloro-N-(2,5-difluorophenyl)-N-(2-{2-[1-(2-iodobenzyl)-2-piperidinyl]ethoxy}benzyl)benzenesulfonamide]	–	0.1 to 0.5 µM
C[C@H](c1ccccc1COC(=O)NCc1ccc2c(c1)OCO2)N(c1cc(F)ccc1F)S(=O)(=O)c1ccc(Cl)cc1 [Example 673, 2-((1R)-1-{[(4-chlorophenyl)sulfonyl]-2,5-difluoroanilino}ethyl)benzyl 1,3-benzodioxol-5-ylmethylcarbamate]	0.1 to 0.5 µM	–
C[C@H](c1ccccc1CCOC(=O)NC1CCCCC1)N(c1cc(F)ccc1F)S(=O)(=O)c1ccc(Cl)cc1 [Example 685, 2-[2-((1R)-1-{3-[2-(1-{[(4-chlorophenyl)sulfonyl]-2,5-difluoroanilino}ethyl)phenyl]ethyl cyclohexylcarbamate]	0.1 to 0.5 µM	–
Cc1cccc(C(=O)NCCCOc2ccccc2C(C)N(c2cc(F)ccc2F)S(=O)(=O)c2ccc(Cl)cc2)c1 (stereo not drawn) [Example 687]	0.1 to 0.5 µM	–
O=[N+]([O-])c1ccc([S+]([O-])CCCOc2ccccc2CN(c2cc(F)ccc2F)S(=O)(=O)c2ccc(Cl)cc2)cc1 (stereo not drawn) [Example 689, 4-chloro-N-(2,5-difluorophenyl)-N-(2-{3-[(4-nitrophenyl)sulfinyl]propoxy}benzyl)benzenesulfonamide]	–	0.1 to 0.5 µM
C[C@H](c1ccc(F)cc1COC(=O)NCc1ccco1)N(c1cc(F)ccc1F)S(=O)(=O)c1ccc(Cl)cc1 [Example 691, 2-((1R)-1-{[(4-chlorophenyl)sulfonyl]-2,5-difluoroanilino}ethyl)-5-fluorobenzyl 2-furylmethylcarbamate]	0.1 to 0.5 µM	–
CC(c1ccccc1OCCCN(C)S(=O)(=O)c1ccc(I)cc1)N(c1cc(F)ccc1F)S(=O)(=O)c1ccc(Cl)cc1 (stereo not drawn) [Example 692, 4-chloro-N-(2,5-difluorophenyl)-N-[1-(2-{3-[[(4-iodophenyl)sulfonyl](methyl)amino]propoxy}phenyl)ethyl]benzenesulfonamide]	–	0.1 to 0.5 µM
CC(C)NC(=O)N(C)CCOc1ccccc1C(C)N(c1cc(F)ccc1F)S(=O)(=O)c1ccc(Cl)cc1 (stereo not drawn) [Example 695, 4-chloro-N-(2,5-difluorophenyl)-N-[1-(2-{2-[[(isopropylamino)carbonyl](methyl)amino]ethoxy}phenyl)ethyl]benzenesulfonamide]	–	0.1 to 0.5 µM
CCN(CC)C(=O)N(CC)CCOc1ccccc1C(C)N(c1cc(F)ccc1F)S(=O)(=O)c1ccc(Cl)cc1 (stereo not drawn) [Example 698, 4-chloro-N-[1-(2-{2-[[(diethylamino)carbonyl](ethyl)amino]ethoxy}phenyl)ethyl]-N-(2,5-difluorophenyl)benzenesulfonamide]	–	0.1 to 0.5 µM
